# Calls of active or inactive are those of the source. The calls are words filed in the database; no cut-off is given here.
# Key:
# [1] = Induction of histone eviction from single assembled nucleosome (unknown origin) assessed as maximum unwrapping of histone from nucleosome at 25 uM incubated for 4 hrs by silver staining based gel electrophoresis assay
# [2] = Induction of histone eviction from single assembled nucleosome (unknown origin) assessed as unwrapping of histone from nucleosome at 15 to 20 uM incubated for 4 hrs by silver staining based gel electrophoresis assay; conditions: dose 15-20 µM
# DNA [3] = test: Induction of GC-rich pYUB12 plasmid DNA (unknown origin) superstructure formation assessed as height of plasmid DNA at DNA base-pair to compound ratio of 1:1.5 by Atomic Force Microscopic analysis (reference value: 0.26 +/-0.08 nm); format: nucleic-acid assay
# GC rich DNA [4] = test: Disruption of native ds-GC12 DNA (unknown origin) base stacking interaction assessed as decrease in positive peak intensity at 283 nm by circular dichroism analysis; format: nucleic-acid assay
# GC rich DNA [5] = test: Binding affinity to native ds-GC12 DNA assessed as reduction in melting temperature at DNA-base pair to compound ratio of 1:1 by differential scanning calorimetry melting based analysis; format: nucleic-acid assay
# Calf thymus DNA [6] = test: Binding affinity to calf thymus DNA assessed as change in free energy by isothermal titration calorimetry; format: nucleic-acid assay; conditions: Bos taurus
# Calf thymus DNA [7] = test: Binding affinity to calf thymus DNA assessed as change in entropy by isothermal titration calorimetry; format: nucleic-acid assay; conditions: Bos taurus
# Calf thymus DNA [8] = test: Binding affinity to calf thymus DNA assessed as change in enthalpy by isothermal titration calorimetry; format: nucleic-acid assay; conditions: Bos taurus
# Calf thymus DNA [9] = test: Binding affinity to calf thymus DNA by isothermal titration calorimetry; format: nucleic-acid assay; conditions: Bos taurus
# DNA [10] = test: Binding affinity to GC-rich pYUB12 plasmid DNA (unknown origin) assessed as induction of DNA unwinding by measuring band shifting at DNA base-pair to compound ratio of 1:1 incubated for 16 hrs by mobility shift assay; format: nucleic-acid assay
# DNA [11] = test: Induction of GC-rich pYUB12 plasmid DNA (unknown origin) unwinding assessed as complete structural change with DNA condensation by measuring increase in condensed DNA band intensity at DNA base-pair to compound ratio of 1:1.5 incubated for 16 hrs by mobility shift assay; format: nucleic-acid assay
# DNA [12] = test: Induction of GC-rich pYUB12 plasmid DNA (unknown origin) unwinding assessed as DNA structural changes at DNA base-pair to compound ratio of 1:6 incubated for 16 hrs by mobility shift assay; format: nucleic-acid assay
# GC rich DNA [13] = test: Displacement of Ethidium bromide from native ds-GC12 short DNA (unknown origin) by Stern-Volmer quenching plot analysis; format: nucleic-acid assay
# GC rich DNA [14] = test: Binding affinity to native ds-GC12 DNA assessed as increase in transition temperature of oligonucleotides at DNA-base pair to compound ratio of 1:4 by differential scanning calorimetry melting based analysis; format: nucleic-acid assay
# GC rich DNA [15] = test: Binding affinity to native ds-GC12 DNA assessed as shift in melting temperature at DNA-base pair to compound ratio of 1:1 by differential scanning calorimetry melting based analysis; format: nucleic-acid assay
# DNA [16] = test: Induction of GC-rich pYUB12 plasmid DNA (unknown origin) superstructure formation assessed as uncoiling of DNA with nodes and loops formation and DNA compaction at DNA base-pair to compound ratio of 1:0.5 by Atomic Force Microscopic analysis; format: nucleic-acid assay
# DNA [17] = test: Induction of GC-rich pYUB12 plasmid DNA (unknown origin) superstructure formation assessed as DNA compaction with distorted structure at DNA base-pair to compound ratio of 1:1 by Atomic Force Microscopic analysis; format: nucleic-acid assay
# DNA [18] = test: Induction of GC-rich pYUB12 plasmid DNA (unknown origin) superstructure formation assessed as DNA compaction with DNA over-supercoiling at DNA base-pair to compound ratio of 1:1.5 by Atomic Force Microscopic analysis; format: nucleic-acid assay
# HCT-116 [19] = test: Cytotoxicity against human HCT-116 cells assessed as reduction in cell viability incubated for 24 hrs by MTT assay; format: functional, cell-based; conditions: HCT-116, 24 h
# HCT-116 [20] = test: Induction of DNA double strand breaks in human HCT-116 cells incubated for 24 hrs by neutral comet assay; format: functional, cell-based; conditions: dose 0.5-0.75 µM, DDE = dose-dependent effect
# HCT-116 [21] = test: Induction of DNA double strand breaks in human HCT-116 cells assessed as increase in tail length at 0.5 to 0.75 uM incubated for 24 hrs by neutral comet assay; format: functional, cell-based; conditions: dose 0.5-0.75 µM
# HCT-116 [22] = test: Induction of DNA damage in human HCT-116 cells assessed as induction of phosphorylation of gamma-H2AX variant incubated for 4 hrs by DAPI staining based immunofluorescence analysis; format: functional, cell-based; conditions: HCT-116, 4 h
# HCT-116 [23] = test: Induction of apoptosis in human HCT-116 cells assessed as increase in uptake of fluorescent nucleotide at 0.5 to 0.75 uM incubated for 4 hrs by TUNEL assay; format: functional, cell-based; conditions: dose 0.5-0.75 µM
# HCT-116 [24] = test: Induction of apoptosis in human HCT-116 cells assessed as viable cells at 0.5 uM incubated for 24 hrs by Annexin V-FITC and propidium iodide staining based flow cytometry analysis (reference value: 95.3%); format: functional; conditions: read-out: Activity
# HCT-116 [25] = test: Induction of apoptosis in human HCT-116 cells assessed as early apoptotic cells at 0.5 uM incubated for 24 hrs by Annexin V-FITC and propidium iodide staining based flow cytometry analysis (reference value: 0.6%); format: functional
# HCT-116 [26] = test: Induction of apoptosis in human HCT-116 cells assessed as late apoptotic cells at 0.5 uM incubated for 24 hrs by Annexin V-FITC and propidium iodide staining based flow cytometry analysis (reference value: 0.3%); format: functional
# HCT-116 [27] = test: Induction of apoptosis in human HCT-116 cells assessed as necrotic cells at 0.5 uM incubated for 24 hrs by Annexin V-FITC and propidium iodide staining based flow cytometry analysis (reference value: 3.9%); format: functional
# HCT-116 [28] = test: Induction of apoptosis in human HCT-116 cells assessed as viable cells at 0.75 uM incubated for 24 hrs by Annexin V-FITC and propidium iodide staining based flow cytometry analysis (reference value: 95.3%); format: functional; conditions: read-out: Activity
# HCT-116 [29] = test: Induction of apoptosis in human HCT-116 cells assessed as early apoptotic cells at 0.75 uM incubated for 24 hrs by Annexin V-FITC and propidium iodide staining based flow cytometry analysis (reference value: 0.6%); format: functional
# HCT-116 [30] = test: Induction of apoptosis in human HCT-116 cells assessed as late apoptotic cells at 0.75 uM incubated for 24 hrs by Annexin V-FITC and propidium iodide staining based flow cytometry analysis (reference value: 0.3%); format: functional
# HCT-116 [31] = test: Induction of apoptosis in human HCT-116 cells assessed as necrotic cells at 0.75 uM incubated for 24 hrs by Annexin V-FITC and propidium iodide staining based flow cytometry analysis (reference value: 3.9%); format: functional
# HCT-116 [32] = test: Induction of apoptosis in human HCT-116 cells assessed as viable cells at 1 uM incubated for 24 hrs by Annexin V-FITC and propidium iodide staining based flow cytometry analysis (reference value: 95.3%); format: functional; conditions: read-out: Activity
# HCT-116 [33] = test: Induction of apoptosis in human HCT-116 cells assessed as early apoptotic cells at 1 uM incubated for 24 hrs by Annexin V-FITC and propidium iodide staining based flow cytometry analysis (reference value: 0.6%); format: functional
# HCT-116 [34] = test: Induction of apoptosis in human HCT-116 cells assessed as late apoptotic cells at 1 uM incubated for 24 hrs by Annexin V-FITC and propidium iodide staining based flow cytometry analysis (reference value: 0.3%); format: functional
# HCT-116 [35] = test: Induction of apoptosis in human HCT-116 cells assessed as necrotic cells at 1 uM incubated for 24 hrs by Annexin V-FITC and propidium iodide staining based flow cytometry analysis (reference value: 3.9%); format: functional
# [36] = Induction of histone eviction from single assembled nucleosome (unknown origin) assessed as reduction in nucleosome band intensity at 60 uM incubated for 4 hrs by silver staining based gel electrophoresis assay
# Supercoiled DNA = test: Induction of GC-rich pYUB12 plasmid DNA (unknown origin) unwinding assessed as complete structural change by measuring decrease in band intensity of supercoiled DNA at DNA base-pair to compound ratio of 1:1.5 incubated for 16 hrs by mobility shift assay; format: nucleic-acid assay
# GC rich DNA [37] = test: Disruption of native ds-GC12 DNA (unknown origin) base stacking interaction assessed as deformation of DNA native structure at DNA base-pair to compound ratio of 1:4 by circular dichroism analysis; format: nucleic-acid assay
# GC rich DNA [38] = test: Disruption of native ds-GC12 DNA base (unknown origin) stacking interaction assessed as change in peak intensity at 283 nm at 15 to 60 uM by ellipticity plot based analysis; format: nucleic-acid assay; conditions: dose 15-60 µM
# HCT-116 [39] = test: Induction of DNA damage in human HCT-116 cells assessed as induction of phosphorylation of gamma-H2AX variant at 0.75 uM incubated for 4 hrs by DAPI staining based immunofluorescence analysis; format: functional, cell-based
compound,measurement,setting,value
CN(C)CCCNc1nc2cc([N+](=O)[O-])ccc2nc1NCc1ccc(I)cc1,Activity,[1],Active
same,Activity,[2],Active
same,Activity,DNA [3],1.48 nm
same,Activity,GC rich DNA [4],Active
same,ΔTm,GC rich DNA [5],2.5 °C
same,deltaG,Calf thymus DNA [6],-7.87 kcal/mol
same,TdeltaS,Calf thymus DNA [7],6.12 kcal/mol
same,deltaH,Calf thymus DNA [8],-1.75 kcal/mol
same,Ka,Calf thymus DNA [9],4.66 10^5/M
same,Activity,DNA [10],Active
same,Activity,DNA [11],Active
same,Activity,DNA [12],Active
same,KSV,GC rich DNA [13],5.8 10^4/M
same,ΔTm,GC rich DNA [14],12 °C
same,Tm,GC rich DNA [15],49.5 °C
same,Activity,DNA [16],Active
same,Activity,DNA [17],Active
same,Activity,DNA [18],Active
same,IC50,HCT-116 [19],440 nM
same,Activity,HCT-116 [20],Dde
same,Activity,HCT-116 [21],Active
same,IC50,HCT-116 [22],500 nM
same,Activity,HCT-116 [23],Active
same,viability at 0.5 µM,HCT-116 [24],2.2%
same,Activity,HCT-116 [25],79.2%
same,Activity,HCT-116 [26],18.2%
same,Activity,HCT-116 [27],0.3%
same,viability at 0.75 µM,HCT-116 [28],1.7%
same,Activity,HCT-116 [29],76.8%
same,Activity,HCT-116 [30],21.1%
same,Activity,HCT-116 [31],0.4%
same,viability at 1 µM,HCT-116 [32],3%
same,Activity,HCT-116 [33],69.3%
same,Activity,HCT-116 [34],27%
same,Activity,HCT-116 [35],0.7%
same,Activity,[36],Active
same,Activity,Supercoiled DNA,Active
same,Activity,GC rich DNA [37],Active
same,Activity,GC rich DNA [38],Active
same,Activity,HCT-116 [39],Active

# Source: ChEMBL document CHEMBL5154651, “Substituent effect of benzyl moiety in nitroquinoxaline small molecules upon DNA binding: Cumulative destacking of DNA nucleobases leading to histone eviction” (Eur J Med Chem, 2022)
